Data: ChEMBL document CHEMBL5260828, “Amphiphilic glycoconjugates as potential anti-cancer chemotherapeutics” (Eur J Med Chem, 2018)
≈ marks a conversion by molar mass, not a printed value.

Legend:
[1] = system: MDA-MB-435; assay: Inhibition of cell migration in human MDA-MB-435 cells incubated for 24 hrs by hematoxylin staining based assay; format: functional; details: MDA-MB-435, 24 h
[2] = system: ACHN; assay: Cytotoxicity against human ACHN cells; format: functional, cell-based
[3] = Cytotoxicity against human HEK293F cells; format: toxicity, cell-based
[4] = system: HeLa; assay: Cytotoxicity against human HeLa cells; format: functional, cell-based
[5] = system: MKN-45; assay: Cytotoxicity against human MKN-45 cells; format: functional, cell-based
[6] = system: ACHN; assay: Cytotoxicity against human ACHN cells assessed as cell viability; format: functional
[7] = system: ACHN; assay: Cytotoxicity against human ACHN cells assessed as cell viability at 5 mM in presence of paclitaxel; format: functional; details: read-out: Activity
[8] = system: Lung NSCLC-N6 cell-line; assay: Cytotoxicity against human Lung NSCLC-N6 cell-line by MTT colorimetric assay; format: functional, cell-based
[9] = system: P388; assay: Cytotoxicity against mouse P388 cells by MTT colorimetric assay; format: functional, cell-based
[10] = system: A2780; assay: Cytotoxicity against human A2780 cells incubated for 48 hrs; format: functional, cell-based; details: A2780, 48 h
[11] = Cytotoxicity against rat Highly aggressively proliferating immortalized Microglia cells assessed as inhibition of cell growth incubated for 24 hrs by CTG luminescence assay; format: toxicity, cell-based
[12] = Cytotoxicity against mouse BV-2 cells assessed as inhibition of cell growth incubated for 24 hrs by CTG luminescence assay; format: toxicity, cell-based
[13] = system: C6; assay: Antimitotic activity against rat C6 cells assessed as inhibition of cell proliferation by measuring inhibitory dose by [3H]-thymidine incorporation based […]; format: functional; details: read-out: ID50 (the source's name)
[14] = system: HSC-2; assay: Cytotoxicity against human HSC-2 cells assessed as inhibition of cell proliferation by MTT colorimetric assay; format: functional, cell-based
[15] = system: Ca9-22; assay: Cytotoxicity against human Ca9-22 cells assessed as inhibition of cell proliferation by MTT colorimetric assay; format: functional, cell-based
[16] = system: MDA-MB-231; assay: Cytotoxicity against human MDA-MB-231 cells assessed as inhibition of cell proliferation by MTT colorimetric assay; format: functional, cell-based
[17] = system: A549; assay: Cytotoxicity against human A549 cells assessed as inhibition of cell proliferation by MTT colorimetric assay; format: functional, cell-based
[18] = system: HCT-116; assay: Antiproliferative activity against human HCT-116 cells assessed as inhibition of cell proliferation; format: functional, cell-based
[19] = system: MCF7; assay: Antiproliferative activity against human MCF7 cells assessed as inhibition of cell proliferation; format: functional, cell-based
[20] = system: MDA-MB-231; assay: Cytotoxicity against human MDA-MB-231 cells assessed as cell growth inhibition by alamar blue assay; format: functional, cell-based
[21] = system: HeLa; assay: Cytotoxicity against human HeLa cells assessed as cell growth inhibition by alamar blue assay; format: functional, cell-based
[22] = system: U-937; assay: Cytotoxicity against human U-937 cells assessed as cell growth inhibition by alamar blue assay; format: functional, cell-based
[23] = Cytotoxicity against mouse NIH/3T3 cells assessed as cell growth inhibition by alamar blue assay; format: toxicity, cell-based, NIH3T3
[24] = system: Jurkat; assay: Cytotoxicity against human Jurkat cells assessed as cell growth inhibition by alamar blue assay; format: functional, cell-based
[25] = system: MCF7; assay: Cytotoxicity against human MCF7 cells assessed as cell growth inhibition by MTT assay; format: functional, cell-based
[26] = system: MCF-10A; assay: Cytotoxicity against human MCF-10A cells assessed as cell growth inhibition by alamar blue assay; format: functional, cell-based
[27] = system: HL-60; assay: Antiproliferative activity against human HL-60 cells assessed as cell growth inhibition; format: functional, cell-based
[28] = system: COLO 205; assay: Antiproliferative activity against human COLO 205 cells assessed as cell growth inhibition; format: functional, cell-based

## CCCCCCCCCCCCCCCCOCC(COC1O[C@H](CO)[C@@H](O[C@@H]2O[C@H](CO)[C@H](O)[C@H](O)[C@H]2O)[C@H](O)[C@H]1O)OC (stereo partly drawn)
[1]
  IC50: 0.3 µM

## CCCCCCCC(=O)O[C@H]1[C@H](OC[C@H](O)[C@H](O)[C@@H](O)[C@@H](O)CO)O[C@H](COC(=O)CCCCC)[C@@H](OC(=O)CCCCC)[C@@H]1OC(=O)CCCCC
[2]
  IC50: 17 µM
[3]
  IC50: 18.1 µM
[4]
  IC50: 16.7 µM
[5]
  IC50: 14.9 µM
[6]
  Activity: 63.8%
[7]
  viability at 5000 µM: 40.6%

## CO[C@@H]1/C=C(\C)C[C@H](/C=C/C#C[C@H]2C[C@@H]2Cl)OC(=O)[C@@H](C)[C@]2(O)C[C@H](O[C@@H]3O[C@@H](C)[C@H](O)[C@@](C)(O)[C@H]3OC)[C@@H](C)[C@@H](O2)[C@@H]1C
[8]
  IC50: 11.3 µg/mL (≈ 17.6 µM)
[9]
  IC50: 15.3 µg/mL (≈ 23.8 µM)
[10]
  IC50: 20.2 µM

## CCCCCCC[C@@H](CC(=O)N[C@H](CO)CC(C)C)OC(=O)C[C@H](CCCCCCC)OC(=O)C[C@H](CCCCCCC)O[C@@H]1O[C@@H](C)[C@H](O)[C@@H](O)[C@H]1O
[11]
  IC50 at 24 h: 22 µM
[12]
  IC50 at 24 h: 6.9 µM

## CO[C@@H]1O[C@H](CO)[C@@H](O[C@@H]2O[C@H](CO)[C@H](OS(=O)(=O)O)[C@H](O)[C@H]2O)[C@H](O[C@@H]2O[C@@H](C)[C@@H](O)[C@@H](O)[C@@H]2O)[C@H]1O
[13]
  IC50: 79 µM

## C=CCCCC[C@@H](C)O[C@@H]1O[C@@H](C)[C@H](OC(=O)C[C@H]2C[C@@H]3O[C@]4(C)CC[C@H]5[C@H](C)CC[C@@H]([C@H]2C)[C@@]35OO4)C[C@H]1O
[14]
  IC50: 15.1 µM
[15]
  IC50: 15.1 µM
[16]
  IC50: 15.1 µM
[17]
  IC50: 15.1 µM

## CCC/C=C\C[C@@H](O[C@H](/C=C/[C@@H](C/C=C\CCCC(=O)OC)OC[C@H]1O[C@@H](OC[C@H](O)CO)[C@H](O)[C@@H](O)[C@@H]1O)[C@H](O)C/C=C\CCCCC)[C@H](O)/C=C/[C@@H](O)CCCCC(=O)OC
[18]
  IC50: 0.003 µM
[19]
  IC50: 0.003 µM

## C/C=C(\C)C(=O)O[C@@H]1[C@@H](O)[C@H](O[C@H]2[C@H](O[C@H](CCC)CCCCC)O[C@H](C)[C@H](OC(C)=O)[C@@H]2O)O[C@H](COC(=O)CCC(=O)CCC)[C@H]1OC(=O)/C=C/c1ccccc1
[20]
  IC50: 0.0188 µM
[21]
  IC50: 0.03 µM
[22]
  IC50: 0.0171 µM
[23]
  IC50: 0.0207 µM
[24]
  IC50: 0.0225 µM
[25]
  IC50: 0.0782 µM
[26]
  IC50: 0.0118 µM

## CN[C@H]1[C@@H](O)C[C@H](O[C@H]2C/C=C(\C)C/C(C)=C/C=C/CC[C@H](C)CNC(=O)/C=C/C=C/[C@@H]2C)O[C@@H]1C [VICENISTATIN]
[27]
  IC50: 0.12 µg/mL (≈ 0.24 µM)
[28]
  IC50: 0.19 µg/mL (≈ 0.379 µM)
